Measured values from article PMC3914206.

Assays:
panel of 442 kinases [1] = target: T1, panel of 442 kinases (Homo sapiens, UniProt Q9H093); assay type: binding; conditions: kinase SNARK; compound concentration 10 µM
T1 construct: purchased KINOMEscan
T1 sequence (Q9H093 1-628): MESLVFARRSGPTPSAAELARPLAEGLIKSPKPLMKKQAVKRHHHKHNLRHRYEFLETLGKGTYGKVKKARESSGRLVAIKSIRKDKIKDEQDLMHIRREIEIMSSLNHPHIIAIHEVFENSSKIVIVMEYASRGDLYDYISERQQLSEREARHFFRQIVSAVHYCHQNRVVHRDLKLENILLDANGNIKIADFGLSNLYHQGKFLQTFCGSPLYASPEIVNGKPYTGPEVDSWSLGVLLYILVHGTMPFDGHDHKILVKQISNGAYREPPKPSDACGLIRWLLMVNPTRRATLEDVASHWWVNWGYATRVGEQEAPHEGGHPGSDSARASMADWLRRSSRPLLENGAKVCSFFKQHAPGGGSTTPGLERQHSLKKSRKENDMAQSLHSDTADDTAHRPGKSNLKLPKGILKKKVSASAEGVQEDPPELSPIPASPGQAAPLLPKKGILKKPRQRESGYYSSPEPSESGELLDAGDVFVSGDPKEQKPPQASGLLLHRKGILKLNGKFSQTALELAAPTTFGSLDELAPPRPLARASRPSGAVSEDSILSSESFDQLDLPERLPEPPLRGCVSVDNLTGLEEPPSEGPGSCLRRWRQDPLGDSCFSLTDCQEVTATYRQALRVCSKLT
Text: (§1) We assessed the selectivity of members of this scaffold using the KINOMEscan methodology across a near comprehensive panel of 442 kinases [[18,27]].

panel of 442 kinases [2] = target: T2, panel of 442 kinases (Homo sapiens, UniProt Q9NRH2); assay type: binding; conditions: kinase SNRK; compound concentration 10 µM
T2 construct: purchased KINOMEscan
T2 sequence (Q9NRH2 1-765): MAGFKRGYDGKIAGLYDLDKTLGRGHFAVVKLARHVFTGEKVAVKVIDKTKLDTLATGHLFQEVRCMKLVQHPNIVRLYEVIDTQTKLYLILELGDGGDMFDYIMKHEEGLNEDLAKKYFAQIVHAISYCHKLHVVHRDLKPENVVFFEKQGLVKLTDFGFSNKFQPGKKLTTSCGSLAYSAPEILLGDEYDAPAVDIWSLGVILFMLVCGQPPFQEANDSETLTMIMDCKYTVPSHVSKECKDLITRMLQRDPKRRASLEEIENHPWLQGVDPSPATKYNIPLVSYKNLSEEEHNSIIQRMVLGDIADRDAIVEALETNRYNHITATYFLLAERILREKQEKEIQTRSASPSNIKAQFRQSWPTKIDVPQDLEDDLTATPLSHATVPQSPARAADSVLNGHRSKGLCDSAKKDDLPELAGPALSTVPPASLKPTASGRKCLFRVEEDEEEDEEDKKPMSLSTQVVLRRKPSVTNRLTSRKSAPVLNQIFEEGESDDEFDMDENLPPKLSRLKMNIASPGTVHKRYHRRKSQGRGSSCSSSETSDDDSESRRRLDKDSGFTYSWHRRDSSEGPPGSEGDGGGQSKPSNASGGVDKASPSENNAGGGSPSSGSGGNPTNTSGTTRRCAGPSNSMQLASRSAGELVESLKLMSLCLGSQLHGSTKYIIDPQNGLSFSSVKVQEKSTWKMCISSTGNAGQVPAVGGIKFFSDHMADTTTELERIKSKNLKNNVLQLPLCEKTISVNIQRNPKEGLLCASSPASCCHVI
Text: as §1

| SMILES | % Ctrl, SNARK (panel of 442 kinases [1]) [% Ctrl] | % Ctrl, SNRK (panel of 442 kinases [2]) [% Ctrl] |
| --- | --- | --- |
| COc1cc(C(=O)N2CCC(N3CCN(C)CC3)CC2)ccc1Nc1ncc2c(n1)N(C)c1ccccc1C(=O)N2C [15 (LRRK2-IN-1)] | 47 | 94 |
| COc1cc(C(=O)N2CCC(N3CCN(C)CC3)CC2)ccc1Nc1ncc2c(n1)N1CCc3cccc(c31)C(=O)N2C [Compound 24] | 74 | – |
| COc1cc(C(=O)N2CCC(N3CCN(C)CC3)CC2)ccc1Nc1ncc2c(n1)N(C1CCCC1)c1ccccc1C(=O)N2C [Compound 25, 11-cyclopentyl-2-((2-methoxy-4-(4-(4-methylpiperazin-1-yl)piperidine-1-carbonyl)phenyl)amino)-5-methyl-5H-benzo[e]pyrimido[5,4-b][1,4]diazepin-6(11H)-one] | 100 | 72 |
| CCOc1cc(C(=O)N2CCC(N3CCN(C)CC3)CC2)ccc1Nc1ncc2c(n1)N(C1CCCC1)c1ccccc1C(=O)N2C [Compound 26] | 96 | 52 |
